According to ChEMBL document CHEMBL1156872, “Synthesis and discovery of 2,3-dihydro-3,8-diphenylbenzo[1,4]oxazines as a novel class of potent cholesteryl ester transfer protein inhibitors” (Bioorg Med Chem Lett, 2010):

Tests used:
[1] = target: T1, Cholesteryl ester transfer protein (Homo sapiens, UniProt P11597); assay: Inhibition of human cholesteryl ester transfer protein by scintillation proximity assay
T1 sequence (P11597 whole entry): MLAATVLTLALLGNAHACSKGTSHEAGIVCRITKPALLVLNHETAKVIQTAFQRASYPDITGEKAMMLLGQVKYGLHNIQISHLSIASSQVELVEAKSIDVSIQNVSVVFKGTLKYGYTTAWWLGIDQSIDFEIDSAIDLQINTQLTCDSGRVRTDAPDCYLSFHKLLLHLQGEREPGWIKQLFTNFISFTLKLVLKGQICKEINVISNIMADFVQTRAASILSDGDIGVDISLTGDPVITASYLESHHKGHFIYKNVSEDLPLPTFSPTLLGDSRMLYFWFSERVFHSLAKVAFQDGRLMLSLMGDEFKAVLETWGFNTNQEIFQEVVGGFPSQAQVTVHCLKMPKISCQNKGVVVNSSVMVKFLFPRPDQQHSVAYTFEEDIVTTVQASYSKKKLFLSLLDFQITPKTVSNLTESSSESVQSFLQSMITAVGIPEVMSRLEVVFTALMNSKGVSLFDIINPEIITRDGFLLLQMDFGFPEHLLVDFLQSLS

[2] = target: T2, Cholesteryl ester transfer protein (Homo sapiens) (UniProt P11597); assay: Inhibition of human cholesteryl ester transfer protein at 1 uM by scintillation proximity assay
T2 sequence (whole entry): T1 sequence (P11597 whole entry)

[3] = Half life in human liver microsomes; type: ADME, Microsome

Row | SMILES | IC50 [1] [nM] | inhibition [2] [%] | half-life [3] [min]
1 | O[C@@H](CN1c2cccc(-c3cccc(OC(F)(F)F)c3)c2OC[C@@H]1c1cccc(OC(F)(F)F)c1)C(F)(F)F | 133 | 69 | –
2 | CC(C)C(O)CN1c2cccc(-c3cccc(OC(F)(F)F)c3)c2OCC1c1cccc(OC(F)(F)C(F)F)c1 (mixture of isomers) | 129 | 86 | –
3 | OC[C@@H](O)CN1c2cccc(-c3cccc(OC(F)(F)F)c3)c2OC[C@@H]1c1cccc(OC(F)(F)C(F)F)c1 | – | 27 | –
4 | CCN1c2cccc(-c3cccc(OC(F)(F)F)c3)c2OCC1c1cccc(OC(F)(F)C(F)F)c1 (racemic) | – | 24 | –
5 | CN(C)CCN1c2cccc(-c3cccc(OC(F)(F)F)c3)c2OCC1c1cccc(OC(F)(F)C(F)F)c1 (racemic) | – | 9 | –
6 | OC(CN1c2cccc(-c3cccc(OC(F)(F)F)c3)c2OCC1c1ccccc1)C(F)(F)F (mixture of isomers) | – | 43 | –
7 | OCCN1c2cccc(-c3cccc(OC(F)(F)F)c3)c2OCC1c1cccc(OC(F)(F)C(F)F)c1 (racemic) | – | 29 | –
8 | CC1(C)OC[C@@H](CN2c3cccc(-c4cccc(OC(F)(F)F)c4)c3OC[C@@H]2c2cccc(OC(F)(F)C(F)F)c2)O1 (mixture of isomers) | – | 25 | –
9 | CCCN1c2cccc(-c3cccc(OC(F)(F)F)c3)c2OCC1c1cccc(OC(F)(F)C(F)F)c1 (racemic) | – | 39 | –
10 | OC(CN1c2cccc(-c3cccc(OC(F)(F)F)c3)c2OCC1c1cccc(C(F)(F)F)c1)C(F)(F)F (mixture of isomers) | – | 37 | –
11 | C[C@@H](O)CN1c2cccc(-c3cccc(OC(F)(F)F)c3)c2OC[C@@H]1c1cccc(OC(F)(F)C(F)F)c1 | – | 28 | –
12 | OC(CN1c2cccc(-c3cccc(OC(F)(F)F)c3)c2OCC1c1ccc(OC(F)(F)F)cc1)C(F)(F)F (mixture of isomers) | – | 38 | –
13 | OC(CN1c2cccc(-c3cccc(OC(F)(F)F)c3)c2OCC1c1ccc(OC(F)(F)C(F)F)cc1)C(F)(F)F (mixture of isomers) | – | 33 | –
14 | O[C@@H](CF)CN1c2cccc(-c3cccc(OC(F)(F)F)c3)c2OC[C@@H]1c1cccc(OC(F)(F)C(F)F)c1 | – | 55 | –
15 | NCCN1c2cccc(-c3cccc(OC(F)(F)F)c3)c2OCC1c1cccc(OC(F)(F)C(F)F)c1 (racemic) | – | 2 | –
16 | O[C@H](CN1c2cccc(-c3cccc(OC(F)(F)F)c3)c2OC[C@@H]1c1cccc(OC(F)(F)C(F)F)c1)C(F)(F)F | – | 23 | –
17 | CC(C)(O)CN1c2cccc(-c3cccc(OC(F)(F)F)c3)c2OCC1c1cccc(OC(F)(F)C(F)F)c1 (racemic) | – | 29 | –
18 | OC(CN1c2cccc(-c3cccc(OC(F)(F)F)c3)c2OCC1c1cccc(SC(F)(F)F)c1)C(F)(F)F (mixture of isomers) | – | 68 | –
19 | OC(CN1c2cccc(-c3cccc(OC(F)(F)F)c3)c2OCC1c1cccc(OC(F)(F)F)c1)C(F)(F)F (mixture of isomers) | 107 | 65 | –
20 | O[C@H](CF)CN1c2cccc(-c3cccc(OC(F)(F)F)c3)c2OC[C@@H]1c1cccc(OC(F)(F)C(F)F)c1 | – | 77 | 21
21 | O[C@@H](CN1c2cccc(-c3cc(F)cc(F)c3)c2OC[C@@H]1c1cccc(OC(F)(F)C(F)F)c1)C(F)(F)F | – | 100 | –
22 | FC(F)C(F)(F)Oc1cccc(C2COc3c(-c4cccc(OC(F)(F)F)c4)cccc3N2CCN2CCOCC2)c1 (racemic) | – | 0 | –
